According to US9771378B2 (Denali Therapeutics, Inc., priority 2014, dated 2017):
pIC50: −log10 of the molar value.

What follows are molecules tested on Aβ42 (human neuroglioma H4 cells expressing human wild type APP751) (assay: In vitro cell screening assay with sandwich ELISA quantification of Aβ42 peptide). Conditions: H4 cells stably expressing human wild type APP751; Pro293 chemically defined medium; compounds 0.003-10 μM; incubated overnight (16-18 h); supernatant Aβ42 by sandwich ELISA; normalized to DMSO and DAPT; read-out: Aβ42 H4 Prot Fre IC50.
Assay type: cell-based
Experimental: Human neuroglioma H4 cells were transfected with a pcDNA3.1 plasmid expressing human wild type APP751 cDNA and a stable cell line was generated using G418 selection. Cells are plated at 15,000 cells/well in Costar 96-well plates and placed at 37° C. and 5% CO2. Six hours after plating, cells are washed three times with Pro293™ chemically defined medium, followed by addition of compounds (0.003-10 μM, final DMSO concentration of 0.33%). Plates were incubated overnight (16-18 h) and supernatant was removed for quantification of AP peptides by sandwich ELISA. Cytotoxicity was evaluated using Cell-Titer 96W AQueous One Solution Cell Proliferation Assay according to the manufacturer's protocol.
ELISA Measurements of Aβ Peptides
Aβ peptide levels were quantified by sandwich ELISA. 96-well plates are coated with C-terminal specific Aβ antibodies recognizing either Aβ37, Aβ38, Aβ40, Aβ42, Aβ43 or a N-terminal specific Aβ antibody to detect Aβ 1-x. Plates are then blocked overnight at 4° C. with 1% bovine serum albumin (BSA) in PBS-T. Plates are washed and 100 μl of cultured cell supernatant or synthetic Aβ peptide standards and a detection antibody (4G8-HRP) are applied to the blocked plate and incubated overnight at 4° C. The next day, wells are washed before the addition […] of detection substrate (TMB peroxidase). Plates are then read for absorbance at 450 nm on a Molecular Devices SpectraMax M5e Microplate Reader.
IC50 values were calculated from values reported as percent of DMSO controls using nonlinear regression, based on a sigmoidal dose-response (variable slope) model. GraphPAD software from Prism used for calculation.

| SMILES | pIC50 |
| --- | --- |
| Cc1cn(-c2ccc(Nc3ncc4c(n3)N(C)C(c3cc(Cl)ccc3C(F)(F)F)CO4)cc2F)cn1 (single isomer, unassigned; (+)) [Example 100A] | 7.00 |
| Cc1cn(-c2ccc(Nc3ncc4c(n3)N(C)C(c3ccc(F)cc3Cl)CO4)cc2F)cn1 (single isomer, unassigned; (+)) [Example 101A] | 7.12 |
| Cc1cc(-c2ccc(Nc3ncc4c(n3)N(C)C(c3ccc(F)cc3Cl)CO4)cc2F)ccn1 (single isomer, unassigned; (+)) [Example 102A] | 6.38 |
| COc1cc(Nc2ncc3c(n2)N(C)C(c2cc(F)c(F)cc2Cl)CO3)ccc1-n1cnc(C)c1 (single isomer, unassigned; (+)) [Example 103A] | 7.72 |
| Cc1cn(-c2ccc(Nc3ncc4c(n3)N(C)C(c3cc(F)ccc3C(F)(F)F)CO4)cc2F)cn1 (single isomer, unassigned; (+)) [Example 104B] | 7.11 |
| COc1cc(Nc2ncc3c(n2)N(C)C(c2cc(F)ccc2C(F)(F)F)CO3)ccc1-n1cnc(C)c1 (single isomer, unassigned; (+)) [Example 105B] | 7.29 |
| Cc1cn(-c2ccc(Nc3ncc4c(n3)N(C)C(c3ccc(Cl)cc3C(F)(F)F)CO4)cc2F)cn1 (single isomer, unassigned; (+)) [Example 106A] | 6.81 |
| COc1cc(Nc2ncc3c(n2)N(C)C(c2ccc(Cl)cc2C(F)(F)F)CO3)ccc1-c1ccnc(C)c1 (single isomer, unassigned; (+)) [Example 107B] | 6.76 |
| Cc1cn(-c2ccc(Nc3ncc4c(n3)N(C)C(C)CO4)cc2F)cn1 (single isomer, unassigned; (+)) [Example 108B] | 6.97 |
| Cc1cn(-c2ccc(Nc3ncc4c(n3)N(C)C(C3CCOCC3)CO4)cc2F)cn1 (single isomer, unassigned; (+)) [Example 109A] | 6.67 |
| COc1cc(Nc2ncc3c(n2)N(C)C(C)CO3)ccc1-c1ccnc(C)c1 (single isomer, unassigned; (+)) [Example 110B] | 7.04 |
| COc1cc(Nc2ncc3c(n2)N(C)C(c2ccc(Cl)cc2C(F)(F)F)CO3)ccc1-n1cnc(C)c1 (single isomer, unassigned; (+)) [Example 112B] | 7.19 |
| COc1cc(Nc2ncc3c(n2)N(C)C(C2CCOCC2)CO3)ccc1-n1cnc(C)c1 (single isomer, unassigned; (+)) [Example 114B] | 7.11 |
| Cc1cn(-c2ccc(Nc3ncc4c(n3)N(C)C(c3cc(F)c(F)c(F)c3)CO4)cc2)cn1 (single isomer, unassigned; (+)) [Example 115B] | 7.66 |
| COc1cc(Nc2ncc3c(n2)N(C)C(C)CO3)ccc1-n1cnc(C)c1 (single isomer, unassigned; (+)) [Example 116B] | 7.20 |
| COc1cc(Nc2ncc3c(n2)N(C)C(c2ccc(F)cc2C)CO3)ccc1-n1cnc(C)c1 (single isomer, unassigned; (+)) [Example 117B] | 7.66 |
| Cc1cn(-c2ccc(Nc3ncc4c(n3)N(C)C(c3cc(F)c(F)c(F)c3)CO4)cc2F)cn1 (single isomer, unassigned; (+)) [Example 118A] | 7.54 |
| COc1cc(Nc2ncc3c(n2)N(C)C(c2cc(Cl)ccc2C(F)(F)F)CO3)ccc1-n1cnc(C)c1 (single isomer, unassigned; (+)) [Example 165A] | 7.05 |
| COc1ccc(Cl)c(C2COc3cnc(Nc4ccc(-n5cnc(C)c5)c(OC)c4)nc3N2C)c1 (single isomer, unassigned; (+)) [Example 167A] | 7.66 |
| COc1cc(Nc2ncc3c(n2)N(C)C(c2ccc(C(F)(F)F)cc2C(F)(F)F)CO3)ccc1-n1cnc(C)c1 (single isomer, unassigned; (+)) [Example 168B] | 7.12 |
| Cc1cn(-c2ccc(Nc3ncc4c(n3)N(C)C(c3cc(F)c(F)cc3Cl)CO4)cc2F)cn1 (single isomer, unassigned; (+)) [Example 169A] | 7.35 |
| COc1cc(Nc2ncc3c(n2)N(C)C(c2ccccc2C)CO3)cnc1-n1cnc(C)c1 (single isomer, unassigned; (+)) [Example 171A] | 7.96 |
| COc1cc(Nc2ncc3c(n2)N(C)C(CC(F)(F)F)CO3)ccc1-n1cnc(C)c1 (single isomer, unassigned; (+)) [Example 172B] | 7.27 |

| SMILES | pIC50 |
| --- | --- |
| Cc1cn(-c2ccc(Nc3ncc4c(n3)N(C)C(c3cc(C(F)(F)F)ccc3Cl)CO4)cc2F)cn1 (single isomer, unassigned; (+)) [Example 173A] | 7.14 |
| COc1cc(Cl)c(C2COc3cnc(Nc4ccc(-n5cnc(C)c5)c(OC)c4)nc3N2C)cc1Cl (single isomer, unassigned; (+)) [Example 174B] | 7.49 |
| COc1ccc(C)c(C2COc3cnc(Nc4ccc(-n5cnc(C)c5)c(OC)c4)nc3N2C)c1 (single isomer, unassigned; (+)) [Example 175A] | 7.96 |
| COc1nc(Nc2ncc3c(n2)N(C)C(c2cc(F)cc(F)c2)CO3)ccc1-n1cnc(C)c1 (single isomer, unassigned; (+)) [Example 179B] | 6.54 |
| COc1nc(Nc2ncc3c(n2)N(C)C(c2ccccc2C)CO3)ccc1-n1cnc(C)c1 (single isomer, unassigned; (+)) [Example 180B] | 6.43 |
| COc1cc(Nc2ncc3c(n2)N(C)C(c2cc(F)c(F)cc2F)CO3)cnc1-n1cnc(C)c1 (single isomer, unassigned; (+)) [Example 181B] | 6.41 |
| COc1cc(Nc2ncc3c(n2)N(C)C(c2cc(F)c(F)c(F)c2)CO3)cnc1-n1cnc(C)c1 (single isomer, unassigned; (+)) [Example 182A] | 7.89 |
| COc1nc(Nc2ncc3c(n2)N(C)C(c2cc(F)cc(F)c2)CO3)ccc1-c1ccnc(C)n1 (single isomer, unassigned; (+)) [Example 183A] | < 5.52 |
| COc1nc(Nc2ncc3c(n2)N(C)C(c2cc(F)cc(F)c2)CO3)ccc1-c1cnn(C)c1 (single isomer, unassigned; (+)) [Example 184B] | < 5.52 |
| COc1cc(Nc2ncc3c(n2)N(C)C(C)CO3)cnc1-n1cnc(C)c1 (single isomer, unassigned; (+)) [Example 185A] | 6.62 |
| COc1cc(Nc2ncc3c(n2)N(C)C(c2ccc(F)cc2F)CO3)cnc1-n1cnc(C)c1 (single isomer, unassigned; (+)) [Example 186A] | 7.74 |
| COc1cc(Nc2ncc3c(n2)N(C)C(C(F)(F)F)CO3)ccc1-n1cnc(C)c1 (single isomer, unassigned; (+)) [Example 187A] | 6.38 |
| COc1nc(Nc2ncc3c(n2)N(C)C(c2cc(F)c(F)c(F)c2)CO3)ccc1-n1cnc(C)c1 (single isomer, unassigned; (+)) [Example 188B] | 6.56 |
| COc1cc(Nc2ncc3c(n2)N(C)C(c2cc(F)cc(F)c2)CO3)cnc1-n1cnc(C)c1 (single isomer, unassigned; (+)) [Example 189A] | 7.89 |
| Cc1cn(-c2ccc(Nc3ncc4c(n3)N(C)C(c3cc(F)cc(F)c3)CO4)nc2C#N)cn1 (single isomer, unassigned; (+)) [Example 192B, (+)-6-((7-(3,5-difluorophenyl)-8-methyl-7,8-dihydro-6H-pyrimido [5,4-b] [1, 4]oxazin-2-yl)amino)-3-(4-methyl-1H-imidazol-1-yl) picolinonitrile] | 6.24 |
| COc1cc(Nc2ncc3c(n2)N(C)C(C(F)(F)F)CO3)cnc1-n1cnc(C)c1 (single isomer, unassigned; (+)) [Example 193A] | 6.04 |
| Cc1cn(-c2ccc(Nc3ncc4c(n3)N(C)C(C)CO4)cn2)cn1 (single isomer, unassigned; (+)) [Example 194A] | 6.01 |
| COc1ccc(C2COc3cnc(Nc4ccc(-n5cnc(C)c5)c(OC)c4)nc3N2C)c(C)c1 (single isomer, unassigned; (+)) [Example 199A] | 7.60 |
| COc1cc(Nc2ncc3c(n2)N(C)C(C)CO3)ccc1-n1cnc(Cl)c1 (single isomer, unassigned; (+)) [Example 202B] | 7.20 |
| Cc1cn(-c2ccc(Nc3ncc4c(n3)N(C)C(c3cc(F)cc(F)c3)CO4)cc2C#N)cn1 (single isomer, unassigned; (+)) [Example 203A, (+)-5-((7-(3,5-difluorophenyl)-8-methyl-7,8-dihydro-6H-pyrimido [5,4-b] [1, 4]oxazin-2-yl)amino)-2-(4-methyl-1H-imidazol-1-yl) benzonitrile] | 7.80 |
| COc1cc(Nc2ncc3c(n2)N(C)C(c2cc(F)cc(F)c2)CO3)ccc1-n1cnc(Cl)c1 (single isomer, unassigned; (+)) [Example 204B] | 7.72 |
| Cc1cn(-c2ccc(Nc3ncc4c(n3)N(C)C(C)CO4)cc2C#N)cn1 (single isomer, unassigned; (+)) [Example 205A, (+)-5-((7,8-dimethyl-7,8-dihydro-6H-pyrimido [5,4-b] [1, 4]oxazin-2-yl)amino)-2-(4-methyl-1H-imidazol-1-yl) benzonitrile] | 6.64 |
